# Source: US20240415826A1, “[…] OF A GENE ENCODING AN […] BY TREATING A HUMAN SUBJECT WITH A NITROXIDE” (priority 2021, published 2024)
# Experiments:
# UCP2 [1] = test: Effects of Tempol on gene expression in cardiac tissue of mice, chip-based microarray; assay type: in vivo; details: 5 mg/g of food from 14 to 31 months after birth
# Protocol: To assess the effects of Tempol on gene expression, Tempol was administered to experimental mice at a dose of 5 mg/g of food from 14 months to 31 months after birth. Mice receiving the same food without the addition of Tempol were used as a negative control. At the age of 31 months, the experimental animals were sacrificed and the hearts were surgically removed. The expression of a broad spectrum of genes in the cardiac tissue was assessed using chip-based microarray technology. Such chips are well known in the art and are widely used to assess gene expression.
# UCP2 [2] = test: Treating a human subject with Tempol, serum level of UCP2 following treatment; assay type: in vivo; details: 2000 mg per day for 180 days
# Protocol: (§1) A 70-kilogram human subject over the age of 65 is identified as having, or known to have, or suspected of having an increased expression level of UCP2. The human subject is administered a dose of 2000 mg of Tempol (or another nitroxide antioxidant) per day for 180 days. This may be administered in a single dose, or may be administered as a number of smaller doses over a 24-hour period: for example, four 500-mg doses at […]. Following treatment, the serum level of UCP2, is decreased.
# as §1, with “subject” for “subject over the age of 65”
# as §1, with “65 and having a cardiovascular disease” for “65”, “for an increased expression level of UCP2. Or a 70-kilogram human subject over the age of 65 is” for “as having, or”, “have a cardiovascular disease and/or” for “have, or suspected of having an”
# as §1, with “at risk” for “over the age”, “developing colorectal cancer” for “65”, “for increased expression level of UCP2. Or a 70-kilogram human subject is” for “as having, or”, “be at risk” for “have, or suspected”, “developing colorectal cancer and/or have” for “having an”
# A 70-kilogram human subject at risk of developing an autoimmune disease (e.g., rheumatoid arthritis) is identified for increased expression level of UCP2. Or a 70-kilogram human subject is known to be at risk of developing an autoimmune disease and/or have increased expression level of UCP2. The human subject is administered a dose of 2000 mg of Tempol (or another nitroxide antioxidant) per day for 180 days. This may be administered in a single dose, or may be administered as a number of smaller doses over a 24-hour period: for example, four 500-mg doses at […]. Following treatment, the serum level of UCP2, is decreased.
# A 70-kilogram human subject of person at risk of developing a condition due to aging is identified. Or a 70-kilogram human subject of person is known to be at risk of developing a condition. The human subject is administered a dose of 2000 mg of Tempol (or another nitroxide antioxidant) per day for 180 days. This may be administered in a single dose, or may be administered as a number of smaller doses over a 24-hour period: for example, four 500-mg doses at […]. Following treatment, the serum level of UCP2, is decreased.
# A 70-kilogram human subject at risk of developing a neurodegenerative disease (e.g., Parkinson's Disease) is identified for increased expression level of UCP2. Or a 70-kilogram human subject is known to be at risk of developing a neurodegenerative disease and/or have increased expression level of UCP2. The human subject is administered a dose of 2000 mg of Tempol (or another nitroxide antioxidant) per day for 180 days. […]
smiles,measurement,setting,value
"CC1(C)CC(O)CC(C)(C)N1[O] [Tempol, 4-hydroxy-2,2,6,6-tetramethylpiperidine-1-oxyl]",Fold change (UCP2 expression in cardiac tissue after Tempol administration),"UCP2 [1]; hearts at 31 months, vs. same food without Tempol, P-value 0.012",−1.61
same,UCP2 expression in cardiac tissue (result in words),UCP2 [1]; microarray,statistically significant decrease in expression
same,serum level of UCP2 following treatment,UCP2 [2]; Example 2: 70-kilogram human subject over the age of 65 with increased UCP2 expression,decreased
same,serum level of UCP2 following treatment,UCP2 [2]; Example 3: 70-kilogram human subject with increased UCP2 expression,decreased
same,serum level of UCP2 following treatment,UCP2 [2]; Example 4: human subject over the age of 65 having a cardiovascular disease,decreased
same,serum level of UCP2 following treatment,UCP2 [2]; Example 5: human subject at risk of developing colorectal cancer,decreased
same,serum level of UCP2 following treatment,UCP2 [2]; Example 6: human subject at risk of developing an autoimmune disease,decreased
same,serum level of UCP2 following treatment,UCP2 [2]; Example 7: human subject at risk of developing a condition due to aging,decreased
same,serum level of UCP2 following treatment,UCP2 [2]; Example 8: human subject at risk of developing a neurodegenerative disease,decreased
same,serum level of UCP2 following treatment,UCP2 [2]; Example 9: human subject having an infection,decreased
